These results are taken from paper PMC7729925, “Selective hepatitis B and D virus entry inhibitors from the group of pentacyclic lupane-type betulin-derived triterpenoids” (Scientific Reports, 2020).

In general, IC50 refers to the concentration needed to halve the response being measured.

The test system of data set [1] is mice. The conditions noted are these: cited from earlier work.
Data set [2] has as its system HDV. Description: in vitro HDV infection of NTCP-HepG2 cells. The settings on record: for inhibition of in vitro HDV infection: 5–300 µM (2, 19) or 5–600 µM (4, 17), 6 h with 700 genome equivalents/cell, HDAg immunostaining day 9. Type of data set: cell-based. On the procedure: At day 9 post infection, cells were fixed and an immunostaining against the HDAg was performed, as a marker of HDV infection. The number of infected cells per well was determined by fluorescence microscopy. NTCP-HepG2 cells incubated without inhibitor were used as control (set to 100% infection rate). Infection experiments in the presence of 0.5 µM myr-preS1_2-48 peptide served as control for the 0% infection rate. Scale bars: 100 µm. Data represent means ± SEM of three independent experiments each with triplicate determinations (n = 9). […] Data were combined from two independent experiments, each with quadruplicate determinations (n = 8). (h) Cell viability was determined with an LDH cytotoxicity assay. HepG2 cells treated with HGM w/o test compound were used as positive control and lysed cells as negative control.
For infection experiments NTCP-HepG2 cells were cultured in 96-well plates in Hepatocyte Growth Medium (HGM) consisting of William’s E Medium (Thermo Fisher Scientific) containing 2% bovine serum albumin (BSA, Roth), 2 mM L-Glutamin (Thermo Fisher Scientific), 100 µg/ml gentamicin (Thermo Fisher Scientific), 10 nM dexamethasone (Sigma-Aldrich), 1 mM sodium pyruvate (Thermo Fisher Scientific), 1 × Insulin-Transferrin-Selen (Thermo Fisher Scientific), 2% DMSO (Merck, Darmstadt, Germany), 4% polyethylene glycol (Sigma-Aldrich) and 2 µg/ml doxycycline (Sigma-Aldrich) as reported. Subsequently, cells were washed with DMEM and cultured in HGM supplemented with 2% DMSO, 2% BSA and 2 µg/ml doxycycline. […] HDV stock solved in 20 µl HGM per well was added for infection and cells were incubated for 6 h with final concentration of 700 genome equivalents/cell of HDV particles. HDV production was done in vitro as described before[55],[56]. RT-qPCR was performed to determine genome equivalents. Every three days medium was changed until cells were fixed at 9 days post infection with 3% paraformaldehyde (Sigma-Aldrich) in PBS, for 30 min at room temperature (RT). Cells were permeabilized with 0.2% Triton X 100 (Roth) in PBS for 30 min at RT, and blocked by incubation with 5% bovine serum albumin (Roth) in PBS, for 30 min at RT. Then, cells were immunostained with purified human anti-HDV-positive serum at 37 °C for 1 h (1:400 dilution). Goat anti-human IgG secondary antibody coupled to Alexa Fluor fluorophore (1:400 dilution, Thermo Fisher Scientific) was added for 1 h at 37 °C for detection of Hepatitis Delta antigen (HDAg) as described before.

The test system of data set [3] is rats. The conditions noted are these: single i.p. application of 400 mg/kg; cited from earlier work.
The target in data set [4] is T1, NTCP (Homo sapiens, UniProt Q14973).
T1 construct: expressed in transfected cells
T1 sequence (Q14973 1-349): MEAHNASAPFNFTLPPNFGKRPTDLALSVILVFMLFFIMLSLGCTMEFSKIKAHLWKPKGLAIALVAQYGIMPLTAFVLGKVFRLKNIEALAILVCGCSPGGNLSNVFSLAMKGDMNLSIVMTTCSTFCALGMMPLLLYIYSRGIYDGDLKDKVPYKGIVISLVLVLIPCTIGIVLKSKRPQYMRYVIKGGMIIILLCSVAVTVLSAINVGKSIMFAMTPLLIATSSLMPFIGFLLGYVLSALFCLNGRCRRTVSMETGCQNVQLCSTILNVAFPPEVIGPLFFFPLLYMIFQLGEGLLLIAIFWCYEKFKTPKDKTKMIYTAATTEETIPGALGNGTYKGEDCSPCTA
Description: [3H]preS1 (myr-preS1_2-48 lipopeptide) binding inhibition in NTCP-HEK293 cells. The settings on record: for IC50: NTCP-HEK293 cells; for Selectivity index: ratio of mean IC50 [3H]TC transport inhibition / IC50 [3H]preS1 binding inhibition. On the procedure:
(§1) The major goal of the present study was to analyze in parallel the effect of inhibitors on both, bile acid transport via NTCP and myr-preS1_2-48 lipopeptide binding to NTCP in a cell culture system. […] NTCP-HEK293 cells were seeded onto 96-well plates and were incubated with tetracycline in order to induce expression of the human NTCP protein. […] Experiments were performed with solvent alone (set to 100%) and with increasing concentrations of the indicated inhibitors. […] Half maximal inhibitory concentrations (IC50) were calculated by nonlinear regression analysis using the equation log(inhibitor) versus response (GraphPad Prism). […] Data represent means ± SD of quadruplicate determinations of representative experiments. […] In parallel, [^3H]preS1 peptide binding experiments were performed with a tritium-labelled myr-preS1_2-48 lipopeptide -HBV subgenotype D3- that was purchased from Pharmaron (120 Ci/mmol, 1 mCi/ml, Cardiff, UK). […] Experiments were stopped after 10 min by two-times washing with ice-cold PBS. For 0% uptake/binding control, the NTCP-HEK293 cells were not induced with tetracycline (-tet). […] Transport rates and [^3H]preS1 binding were determined in counts per minute (cpm). […] IC50 values were calculated from quadruplicate determinations by GraphPad Prism 6 (GraphPad, San Diego, CA, USA).

In data set [5] the target is T1, NTCP. Description: [3H]TC transport (bile acid uptake) inhibition in NTCP-HEK293 cells. Type of data set: cell-based. The conditions noted are these: for [3H]TC transport inhibition (in words): 0.1–1,000 µM. On the procedure:
as §1

For data set [6], the target named is T1, NTCP. Also on record: method as in earlier work. The conditions noted are these: ref 25 (Shimura et al.); read-out: IC50 bile acid transport inhibition; cited from earlier work.
For data set [7], the system named is HBV. Also on record: method as in earlier work. The conditions noted are these: ref 25 (Shimura et al.); read-out: IC50 in vitro HBV infection; cited from earlier work.
Data set [8] deals with HBV/HDV. Also on record: method as in PMID 15650187. The settings on record: cited from earlier work.
Where [9] appears, read: IC50 ([3H]preS1 binding), 95% confidence interval, inhibition of 5 nM [3H]preS1 binding, 10 min, 37 °C.
[10] abbreviates: mean IC50, 5 nM [3H]preS1, standard pH 7.4, read-out: IC50 [3H]preS1 binding inhibition.
[11] abbreviates: 95% confidence interval, inhibition of 1 µM [3H]TC uptake, NTCP-HEK293 cells, 10 min, 37 °C, read-out: IC50 ([3H]TC uptake).
The mark [12] stands for this setting: 95% confidence interval, inhibition of 5 nM [3H]preS1 binding, 10 min, 37 °C, read-out: IC50 ([3H]preS1 binding).
[13] abbreviates: mean IC50, […] µM [3H]TC, NTCP-HEK293 cells, standard pH 7.4, read-out: IC50 [3H]TC transport inhibition.

Where “and” joins values, the source holds several entries; their conditions need not be identical. Equal entries are not always repeated. Where two headings read alike, the source gives them in different places.

In the case of `C=C(C)[C@@H]1CC[C@]2(C(=O)O)CC[C@]3(C)[C@H](CC[C@@H]4[C@@]5(C)CC[C@H](O)C(C)(C)[C@@H]5CC[C@]43C)[C@@H]12` [Compound 4, Betulinic acid], the “toxic effects in mice, repeated dose” value in data set [1] (100 mg/kg i.p. every 3–4 days for a total of six treatments) is reported as “no toxic effects were observed”. Also, in data set [1] (500 mg/kg i.p. once), the “toxic effects in mice, single dose” value is reported as “no toxic effects were observed”. Moreover, the “inhibition of in vitro HDV infection” value in data set [2] is listed as “significantly blocked”. Further, the “toxic effects in rats” value in data set [3] is recorded as “no toxic effects were observed”.
For the molecule `C=C(C)[C@@H]1CC[C@]2(C)CC[C@]3(C)[C@H](CC[C@@H]4[C@@]5(C)CCC(=O)C(C)(C)[C@@H]5CC[C@]43C)[C@@H]12` [Compound 17, Lupenone], the half-maximal inhibitory concentration (IC50) in data set [4] (setting [9]) lay in the range of 13.1 to 35.5 µM; in data set [4] (IC50 [3H]preS1 binding inhibition, mean IC50, 5 nM [3H]preS1, standard pH 7.4), 11 to 50 µM; in data set [5] (read-out: IC50 ([3H]TC uptake)), 146 to 397 µM. In addition, the “inhibition of in vitro HDV infection” value in data set [2] was “significantly blocked”.
In the case of `C=C(C)[C@@H]1CC[C@]2(C(=O)N[C@@H](CC(=O)OC)C(=O)OC)CC[C@]3(C)[C@H](CC[C@@H]4[C@@]5(C)CCC(=O)C(C)(C)[C@@H]5CC[C@]43C)[C@@H]12` [Compound 19, Betulonoyl dimethyl-L-aspartate], the IC50 in data set [4] (setting [10]) is 11 to 50 µM; in data set [5] (setting [11]) it was 298 to 1430 µM. For the same molecule, the Selectivity index in data set [4] worked out at 28. For the same molecule, the “inhibition of in vitro HDV infection” value in data set [2] is given as “significantly blocked”.
Take `C=C(CO)C1CCC2(COC(C)=O)CCC3(C)C(CCC4C5(C)CCC(OC(C)=O)C(C)(C)C5CCC43C)C12` (centres unmarked) [Compound 25, 3,28-Di-O-acetyl-29-hydroxybetulin]: the IC50 is 5.29 to 13 µM in data set [4] (setting [12]); < 10 µM and 8 µM in data set [4] (setting [10]); over 1000 µM in data set [5] (setting [11]); over 1000 µM in data set [5] (setting [13]). In addition, in data set [5] (NTCP-HEK293 cells), the “[3H]TC transport inhibition (in words)” value is “no transport inhibition at all”.
On to `CC(=O)OC[C@]12CC[C@@H](C3(C)CO3)[C@@H]1[C@H]1CC[C@@H]3[C@@]4(C)CC[C@H](OC(C)=O)C(C)(C)[C@@H]4CC[C@@]3(C)[C@]1(C)CC2` (some centres unmarked) [Compound 26, 3,28-Di-O-acetyl-20,30-epoxybetulin], for which the IC50 in data set [4] (setting [12]) was in the range of 26.5 to 73 µM; in data set [5] (setting [11]) it was 332 to 891 µM. In addition, the Selectivity index in data set [4] turned out to be 12.
Regarding `C=C(C)C1CCC2(CO)CCC3(C)C(CCC4C5(C)CCC(OC(=O)C=Cc6ccc(O)c(O)c6)C(C)(C)C5CCC43C)C12` (centres unmarked) [Compound 27, 3-O-Caffeoylbetulin], the IC50 in data set [4] (setting [12]) was 3.35 to 10 µM; in data set [4] (setting [10]), 6 µM; in data set [5] (setting [11]), 85 to 195 µM. In data set [4], the Selectivity index was 22.
With `CC(=O)OC[C@]12CCC(C(C)C)=C1[C@H]1CC[C@@H]3[C@@]4(C)CC[C@H](OC(C)=O)C(C)(C)[C@@H]4CC[C@@]3(C)[C@]1(C)CC2` [Compound 28, 3,28-Di-O-acetyl-18,19-dehydro-20,29-dihydrobetulin], the half-maximal inhibitory concentration (IC50) in data set [4] (setting [12]) was 30 to 133 µM; in data set [5] (setting [11]), over 1000 µM; in data set [5] (setting [13]), over 1000 µM. In data set [4], the Selectivity index is recorded as over 16. For the same molecule, the “[3H]TC transport inhibition (in words)” value in data set [5] (NTCP-HEK293 cells) is on record as “no transport inhibition at all”.
For the molecule `CC1(C)CC[C@]23CC[C@]4(C)[C@H](CC[C@@H]5[C@@]6(C)CC[C@H](O)C(C)(C)[C@@H]6CC[C@]54C)[C@H]2[C@H]1OC3` [Compound 29, Allobetulin], the IC50 was 9.67 to 20.8 µM in data set [4] (setting [9]) and 212 to 675 µM in data set [5] (read-out: IC50 ([3H]TC uptake)).
`CC=CCC(C)C(O)C1C(=O)NC(CC)C(=O)N(C)C(OCCOC)C(=O)N(C)C(CC(C)(C)O)C(=O)NC(C(C)C)C(=O)N(C)C(CC(C)C)C(=O)NC(C)C(=O)NC(C)C(=O)N(C)C(CC(C)C)C(=O)N(C)C(CC(C)C)C(=O)N(C)C(C(C)C)C(=O)N1C` (centres unmarked) [SCY995]: the half-inhibitory concentration (IC50) in data set [6] is over 25 µM; in data set [7], under 8 µM.
With `CCCCCCCCCCCCCC(=O)NCC(=O)N[C@@H](CCC(N)=O)C(=O)N[C@@H](CC(N)=O)C(=O)N[C@@H](CC(C)C)C(=O)N[C@@H](CO)C(=O)N[C@H](C(=O)N[C@@H](CO)C(=O)N[C@@H](CC(N)=O)C(=O)N1CCC[C@H]1C(=O)N[C@@H](CC(C)C)C(=O)NCC(=O)N[C@@H](Cc1ccccc1)C(=O)N[C@@H](Cc1ccccc1)C(=O)N1CCC[C@H]1C(=O)N[C@@H](CC(=O)O)C(=O)N[C@@H](Cc1c[nH]cn1)C(=O)N[C@@H](CCC(N)=O)C(=O)N[C@@H](CC(C)C)C(=O)N[C@@H](CC(=O)O)C(=O)N1CCC[C@H]1C(=O)N[C@@H](C)C(=O)N[C@@H](Cc1ccccc1)C(=O)N[C@@H](CCCNC(=N)N)C(=O)N[C@@H](C)C(=O)N[C@@H](CC(N)=O)C(=O)N[C@H](C(=O)N[C@@H](C)C(=O)N[C@@H](CC(N)=O)C(=O)N1CCC[C@H]1C(=O)N[C@@H](CC(=O)O)C(=O)N[C@@H](Cc1c[nH]c2ccccc12)C(=O)N[C@@H](CC(=O)O)C(=O)N[C@@H](Cc1ccccc1)C(=O)N[C@@H](CC(N)=O)C(=O)N1CCC[C@H]1C(=O)N[C@@H](CC(N)=O)C(=O)N[C@@H](CCCCN)C(=O)N[C@@H](CC(=O)O)C(=O)N[C@H](C(=O)N[C@@H](Cc1c[nH]c2ccccc12)C(=O)N1CCC[C@H]1C(=O)N[C@@H](CC(=O)O)C(=O)N[C@@H](C)C(=O)N[C@@H](CC(N)=O)C(=O)N[C@@H](CCCCN)C(=O)N[C@H](C(=O)NCC(N)=O)C(C)C)[C@@H](C)O)[C@@H](C)O)[C@@H](C)O` [myr-preS1_2-48 lipopeptide, reference compound], the “IC50 of in vitro HBV/HDV infection” value in data set [8] is listed as “low nanomolar range”. Further, the “in vitro HDV infection with peptide control” value in data set [2] (co-incubation with 0.5 µM, set to 0% infection rate) is recorded as “completely abolished infection”.
